Test system: skin keratinocyte cell line HaCaT
Assay: Resazurin assay of HaCaT keratinocyte cell proliferation and viability
Type: cell-based, human
Conditions: Example 2, 24 hours, Calcipotriol alone 10 μM, FIG. 2
Protocol: The spontaneously immortalized, nontumorigenic skin keratinocyte cell line HaCaT was maintained in DMEM supplemented with 5% (v/v) FBS, 0.3 mg/ml glutamine and 0.1 mg/ml gentamicin at 37° C. with 5% CO2 in a humidified atmosphere. Subculture using trypsin-EDTA was performed every 3-4 days with split ratio of 1:3-1:4 to ensure actively proliferating cells.
Cells were seeded in 96 well plates in fully supplemented medium at a density of 2500 cells per well. Following 72 hours of cultivation, the cells were starved of serum in 0.25% FBS/DMEM overnight to halt proliferation, synchronize the cells and to increase cell sensitivity to treatment. On day 4, the cells were treated with cPLA2a inhibitor Compound A and corticosteroid Betamethasone 17, 21-dipropionate (Sigma Aldrich # B1152) and left to incubate for […] in incubator at 37° C. with 5% CO2 in a humidified atmosphere before fluorescence was read at 544 nm excitation and 590 nm emission wavelength. […]
Cells were seeded in 96 well plates in fully supplemented medium at a density of 2500 cells per well. […] On day 5, resazurin was added according to the manufacturer's instruction (RnD Systems, UK) and left to incubate for 2 hour incubator at 37° C. with 5% CO2 in a humidified atmosphere before fluorescence was read at 544 nm excitation and 590 nm emission wavelength. […]

Structure (SMILES): C=C1/C(=C\C=C2/CCC[C@]3(C)[C@@H]([C@H](C)/C=C/[C@@H](O)C4CC4)CC[C@@H]23)C[C@@H](O)C[C@@H]1O [Calcipotriol, Calcipotriol hydrate]
- reduction of cell proliferation: 20%

Reference: patent US20200330399A1, “COMBINATION THERAPY COMPRISING A POLYUNSATURATED KETONE AND A CORTICOSTEROID” (priority 2016, published 2020)
